Assay results taken from US6461613B2, “Methods and compositions for the selective regulation of chorionic prostanoids” (priority 1993, dated 2002).
Ends that are not written are not given here.

How the values were obtained:
[1] = system: human term placenta; experiment: Effect of dexamethasone and GnRH on prostanoid release from perifused human term placental explants; format: cell-based
Method: Medium 199 (x2) with Earles' Modified Salts, bicarbonate and L-glutamine without phenol red was purchased from Gibco (Chagrin Falls, Ohio). Penicillin, streptomycin, bovine serum albumin and Indomethacin were obtained from Sigma Chemicals (St. Louis, Mo.). Placental perifusion was performed essentially as described in Example 3.
Samples were stored at −20° C. until assayed for PGE, PGF, PGFM, Tx B2 or 6-keto-PGF1α. Recovery and stability of these prostanoids in this perifusion system and during storage were assessed by spiking the medium with prostanoids and perifusing it through empty chambers and collecting samples as described above. In addition, samples were frozen and thawed repeatedly and re-assayed. Prostanoid recovery and stability were nearly 100%. Thus, no data correction for procedural losses was done. Radioimmunoassays were performed as described in Example 1.
The perifusion system described at Examples 2 and 3 was used in the present study. […] It took one hour for the input medium to pass through the perifusion tubing and chamber and to be collected in the sample tube. Four replicated chambers were perifused with each of the three experimental media, while, in another four replicated chambers, the perifusion was continued with the control Medium 199.
Hormonal values for a given chamber were normalized to the fifth-hour prostanoid release for that chamber, expressed as a percent release over the fifth-hour release. […] Thus, the release of each chamber was related to functional competence at the time of treatment rather than to its mass.
The mean release for replicate chambers from a given placenta for each particular hormone in the presence of GnRH, dexamethasone, or GnRH and dexamethasone at each point was calculated. Similar calculations were done for the control chambers. The mean data for each treatment for the three different placentas were subjected to statistical analyses. Thus, the response for each placenta was weighed equally. Two-way analysis of variance was used to determine if there was significant main effect or interaction.
In addition, the cumulative release for each hormone from each placenta for each treatment was calculated. One-way analysis of variance was used to test for statistically significant effects of treatment. The points of significant variation were determined using Student-Newman-Keuls' test.

[2] = system: human term placenta; experiment: Effect of enzyme inhibitors on prostanoid release from perifused human term placental explants (RIA); format: cell-based; settings: indomethacin 50 μg/ml
Method: Radioimmunoassays were performed in a fashion similar to what has been previously described (Siler-Khodr et al., 1986, Biol. Reprod., 35:312) which is specifically incorporated herein for this purpose, with specific exception as noted below. A perifusion model (described in Examples 2 and 3) was employed to determine placental cell response. Media collected from the perifusion samples prepared from placental tissues were assayed. […] All the samples from a given perifusion (placenta) were determined in the same assay. At the beginning of the fifth hour of the perifusion, Medium 199 in the experimental chambers was changed to Medium 199 containing quinacrine (10 μM), EDTA (1 mM), NDGA (10 μM) or indomethacin (50 μg/ml). Four replicated chambers were perifused with control medium and each of the experimental media. This experimental design was repeated in three different perifusions using placental tissues from three different patients according to the procedure described in Example 3. […] Term placentas were obtained and placed on ice immediately after vaginal delivery from patients having spontaneous labor and delivery without any known obstetrical or medical complications. Tissues were obtained in accordance with a protocol approved by the Institutional Review Board. Within 30 minutes, the placental tissues were dissected of decidua, chorionic plates and large fetal vessels on ice. The placental tissues were cut into small fragments (approximately 25 pieces having a total weight of approximately 1 g), rinsed free of blood by repeated washing with ice cold normal saline until clear in color, and the tissue fragments placed in a 3-ml tissue chamber, placed in a 37° C. water bath. […] This medium is hereafter referred to as Medium 199. […] Perifusion was performed for two hours prior to initiation of sample collection. In this fashion, all tissues were thoroughly washed and equilibrated. Samples were collected hourly, beginning at the start of the third hour, into 12×75 mm glass tubes containing 0.1 ml indomethacin and 1100 μg/ml dimethyl sulfoxide [DMSO]. It took approximately one hour for the input medium to pass through the perifusion tubing and chamber and to be collected in the sample tube, thus the dead volume of the system was approximately 1 ml. Collection of the effluent of the 20 chambers was done simultaneously, using an ISCO fraction collector Retriever III adapted with a 20-tube rack and manifold. The prostanoid release for a given chamber was expressed as the increase over the fourth-hour prostanoid release for that chamber. Because there may be differences in the amounts of blood vessels and connective tissue among placental explants, the release expressed per unit weight results in high variance between chambers. […] Thus, the release of each chamber was related to its functional competence at the time of treatment rather than its mass. The mean release for replicate chambers from a given placenta for each particular prostanoid in the presence of arachidonic acid or each of the various enzyme inhibitors was calculated and then the mean data for each of the three different placentas was averaged at each time point. Thus, each placenta was weighted equally in the statistical analyses. Two-way analysis of variance of the average response for each prostanoid for each dose of arachidonic acid or each enzyme inhibitor studied, at each time point, was performed. The normalized data were tested for homogeneity using Cohrna's Q test, and no significant deviation was found. Thus, for each prostanoid and each treatment, where there was a significant main effect or interaction, Dunnett's comparison test was applied to determine the point(s) of significant difference as compared to the control. P<0.05 was considered to be statistically significant.

[3] = on the order of at least; cited from earlier work
[4] = seven hours of perifusion, dexamethasone 10^−8 M, GnRH 10^−7 M, compared to control

C[C@@H]1C[C@H]2[C@@H]3CCC4=CC(=O)C=C[C@]4(C)[C@@]3(F)[C@@H](O)C[C@]2(C)[C@@]1(O)C(=O)CO [dexamethasone]
release as percent of control ([1]; dexamethasone 10^−8 M, seventh hour of incubation): 68 % of its control release | cumulative release of TxB2 ([1]; seven hours of perifusion, dexamethasone 10^−8 M, GnRH 10^−7 M): 62%±6% | cumulative release of 6-keto-PGF1α [1, 4]: 73%±7% | cumulative release of PGE [1, 4]: 66%±4% | cumulative release of PGF [1, 4]: 71%±4%

COc1ccc2c(c1)c(CC(=O)O)c(C)n2C(=O)c1ccc(Cl)cc1 [indomethacin]
PGFM release ([2]; after seven hours of perifusion): 51.8 % of the release from the control | PGFM release, effect ([2]; after three hours of exposure): not inhibited | 6-keto-PGF1α release ([2]; continued perifusion): 26.3 % of the control | PGE release ([2]; continued perifusion): 24.0 % of the control | PGF release ([2]; continued perifusion): 9.6 % of the control | TxB2 release ([2]; continued perifusion): 30.5 % of the control | 6-keto-PGF1α release ([2]; three hours post-exposure): 41.3 % of control | PGE release ([2]; three hours post-exposure): 33.5 % of control | PGF release ([2]; three hours post-exposure): 22.1 % of control | TxB2 release ([2]; three hours post-exposure): 42.3 % of control | molar concentration necessary to produce pharmacological affects [3]: at least 10^−3 molar (M)

GnRH: gonadotropin-releasing hormone (QHWSYGLRPG; ends and bridges not checked; UniProt P01148 24-33, looked up)
effect on TxB2 release ([1]; GnRH 10^−7 M, within the first hour, continued throughout perifusion): inhibition
